Measurements published in PubChem BioAssay (NCI).
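Grown in 96-well plates, cells were treated for 48 hours with each compound at five concentrations. Insufficient inhibition: endpoint recorded as highest concentration tested. Definition used: TGI = concentration required for complete inhibition of growth.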 Where a SMILES comes first, the peptide text is derived from it. The star is where a group is joined. Boc = CC(C)(C)OC(=O)*; OBn = c1ccc(CO*)cc1

Key:
Experiment in all cases: growth of human tumour cells (NCI), 48 h
M14 melanoma = system: M14 melanoma
HCT-116 colon = system: HCT-116 colon
UACC-62 melanoma = system: UACC-62 melanoma
SF-539 CNS = system: SF-539 CNS
MDA-N = system: MDA-N
NCI-H226 lung = system: NCI-H226 lung
HT29 colon = system: HT29 colon
PC-3 prostate = system: PC-3 prostate
CAKI-1 renal = system: CAKI-1 renal
K-562 leukemia = system: K-562 leukemia
KM12 colon = system: KM12 colon
LOX IMVI melanoma = system: LOX IMVI melanoma

SMILES	TGI (M14 melanoma) [µM]	TGI (HCT-116 colon) [µM]	TGI (UACC-62 melanoma) [µM]	TGI (SF-539 CNS) [µM]	TGI (MDA-N) [µM]	TGI (NCI-H226 lung) [µM]	TGI (HT29 colon) [µM]	TGI (PC-3 prostate) [µM]	TGI (CAKI-1 renal) [µM]	TGI (K-562 leukemia) [µM]	TGI (KM12 colon) [µM]	TGI (LOX IMVI melanoma) [µM]
NC(CCC(=O)O)(CCC(=O)O)CCC(=O)O	> 100	> 100	> 100	> 100	> 100	> 100	> 100	> 100	> 100	> 100	> 100	
COc1cccc(C2SCC(=O)N2c2ccc(-n3c(-c4ccccc4)nc4ccccc4c3=O)cc2)c1OC (stereo unspecified)	> 100	> 100	> 100	> 100	> 100	> 100	> 100	> 100	> 100	> 100	> 100	> 100
CCOC(=O)/C=C(\C(=O)OCC)n1ccc(=O)n(CC(=O)OCC)c1=O	5.48	3.44	19.2	32.3	17	12.8	16.2	11.2	1.68	4	30.8	5.23
c1ccc2c(c1)nc1n2C2CCC(C2)N1 (stereo unspecified)	> 10	> 10	> 10	> 10	> 10	> 10	> 10	> 10	> 10	> 10		> 10
Cc1n[nH]c(=O)n1/N=C\CC/C=N\n1c(C)n[nH]c1=O	> 100	> 100	> 100	> 100	> 100	> 100	> 100	> 100	> 100	> 100	> 100	> 100
Cc1ccc(-c2c(C#N)c(N)nc3c2CCS(=O)(=O)c2ccccc2-3)cc1		> 100	> 100		> 100	> 100	> 100	> 100	> 100	> 100	> 100	> 100
O=C(NCCc1ccccc1)c1c(O)c2ccccc2[nH]c1=O		> 100		> 100	> 100	> 100	> 100	> 100	> 100	> 100	> 100	> 100
Oc1ccc(/C=C/c2ccc3cccc(O)c3n2)cc1O	7.46	14.5	23.8	9.46	44.7		37.7	67.6	> 100	> 100	33	16.5
CC(=O)O[C@H]1CCn2c3c(c(C)c21)C(=O)C(N1CC1)=C(C)C3=O	> 10	> 10	> 10	> 10	> 10	> 10	> 10	> 10	> 10	> 10	> 10	> 10
COc1ccc(C2(O)c3ccccc3C(=O)N(C)C2(O)c2ccc(OC)cc2)cc1 (stereo unspecified)	> 100	> 100	> 100	> 100	38.1		> 100	> 100	> 100	> 100	89.4	> 100
Nc1ncnc2c1cnn2Cc1cn(COCC(O)CO)nn1 (stereo unspecified)	> 100	> 100	> 100	> 100	> 100		> 100	> 100	> 100		> 100	> 100
NNCCc1n[nH]c(=O)n1N	> 100	> 100	> 100	> 100	> 100	> 100	> 100	> 100	> 100	> 100	> 100	> 100
CC(NC(=O)C(Cc1ccccc1)NC(=O)C(Cc1ccccc1)NC(=O)OC(C)(C)C)C(=O)OCc1ccccc1 (stereo not drawn) (Boc-Phe-Phe-Ala-OBn; configuration not given here)	> 100	> 100	> 100	> 100	> 100	84	> 100	> 100		> 100	> 100	> 100
C=CCCCC1CCCNC1=S (stereo unspecified)	> 100	> 100	> 100	> 100	> 100	> 100	> 100	> 100	> 100	> 100	> 100	
O=C1CCCCC/C1=C\c1ccc(Cl)cc1	> 100	> 100	> 100		> 100	> 100	54.5	48.4	> 100		51.4	> 100
c1ccc2cc(CNCCOCCOCCNCc3ccc4ccccc4c3)ccc2c1	3.89	3.08	3.54	3.69	3.23	9.9	2.76	5.3	3.68	2.79	3.16	3.06
NC(=O)NC(=O)c1cccc(NC(=O)CF)c1	> 100	> 100	> 100	> 100	> 100	> 100	> 100	> 100	> 100	> 100	> 100	> 100
CC(C)(C)[Si](C)(C)OCCOCn1cc(F)c(=O)[nH]c1=O	> 100	> 100	> 100	> 100	> 100	> 100	> 100	> 100	> 100	> 100	> 100	> 100
CC(C)CC(NC(=O)C(CCI)Cc1ccccc1)C(=O)Nc1ccccc1 (stereo unspecified)	> 100	> 100	> 100	> 100	> 100	> 100		> 100	> 100	> 100	> 100	> 100
CC12c3c4cc(Br)cc3Oc3cc(Br)cc(c31)Oc1cc(Br)cc(c12)O4	> 100	> 100	> 100	> 100	> 100	41.3	> 100	55.3		> 100	> 100	51.1

SMILES	TGI (M14 melanoma) [µM]	TGI (HCT-116 colon) [µM]	TGI (UACC-62 melanoma) [µM]	TGI (SF-539 CNS) [µM]	TGI (MDA-N) [µM]	TGI (NCI-H226 lung) [µM]	TGI (HT29 colon) [µM]	TGI (PC-3 prostate) [µM]	TGI (CAKI-1 renal) [µM]	TGI (K-562 leukemia) [µM]	TGI (KM12 colon) [µM]	TGI (LOX IMVI melanoma) [µM]
O=c1c2cn[nH]c2nc2scc(-c3ccc(Cl)cc3)n12	> 100	> 100	> 100	> 100	> 100	> 100	> 100	> 100	> 100	> 100	> 100	> 100
Clc1nc(NCCc2ccccc2)c2ncn(-c3ccccc3)c2n1	49.7	56.4	56.7		40.2	58.9	34.2	47.8	34	70.5	51.3	43.1
O=C(Cc1ccccc1)NCCCN(CCCCN(CCCNC(=O)Cc1ccccc1)C(=O)OCc1ccccc1)C(=O)OCc1ccccc1	> 100	> 100	> 100	> 100	> 100	> 100	> 100	> 100		> 100	> 100	> 100
CCN(CC)C(=S)N=Nc1c(O)[nH]c2ccccc12	2.94	2.84	6.38	2.4	16.5	8.2	14.8	13.9	5.98	5.31	10.5	13.4
O=C1NC(=O)C(COCc2ccccc2)C2=C1SCCC2 (stereo unspecified)	> 100	> 100		> 100	> 100	> 100	> 100	> 100	> 100	> 100	> 100	> 100
O=c1oc2c(ccc3ccccc32)cc1C1=CSC2=NCCN12	> 100	> 100	> 100	> 100	> 100		> 100	> 100	> 100	> 100	> 100	> 100
CC1=N[C@](C)(C2CC3C=CC2C3=O)COC1=O (stereo partly specified)	> 100	> 100	> 100	> 100	> 100	> 100	> 100	> 100	> 100	> 100	> 100	
O=S(=O)(O)c1ccc2c(N=Nc3ccc(F)cc3)c(O)c(S(=O)(=O)O)cc2c1	> 100	> 100	> 100		> 100		> 100	> 100	> 100	> 100	> 100	> 100
O=C(CCCN1CCC2(CC1)CC(=O)N(N1CCCCCC1)C2=O)c1ccc(F)cc1	> 100	> 100	> 100	> 100	> 100		33.8	> 100	> 100	> 100		> 100
O=C(O)CC1(CC(=O)O)Nc2ccccc2SC1=O	> 100	> 100	> 100		> 100	> 100	> 100	> 100	> 100	> 100	> 100	> 100
c1ccc(C2OCC(OC3CCCCO3)CO2)cc1 (stereo unspecified)	> 100	> 100	> 100	> 100	> 100	> 100	> 100	> 100	> 100	> 100		> 100
C/C(=N\NC(=S)NC(C)(C)C)c1ccccn1	9.19	> 100	25.7	18.1	> 100	16	> 76.6		> 100		> 100	> 100
O=C1/C(=C/c2c(Cl)[nH]c3ccccc23)c2ccccc2N1c1ccccc1	13	15.6	21.1	7.44	3.8		18.9	19.4	> 100	> 100	19.7	15.6
CC1(C)OC(=O)C2(O1)C(=O)C1CCCCC12 (stereo unspecified)	> 100	> 100	> 100		> 100	> 100	> 100	> 100	> 100	> 100	> 100	
COc1ccc(C(=O)/C=C/c2cccnc2)cc1OC	26.6	16.3	28.4	6.4	25.6	24.8	15.2	28	15.7	43.8		3.81
COC(=O)C1(Cc2ccc3c(c2)CCC3)Cc2ccc3c(c2C1)CCC3 (stereo unspecified)		54.8	> 100	> 100	41	66	33.9	55.9	79.2	> 100	54	32.9
CC(=O)N1N(c2ccc([N+](=O)[O-])cc2)C(=O)C1(C)C	23.7		42.3	49.7	> 100	37.6	44.8	32		60.5	35.4	26.5
Cc1cc2nc(-c3c(F)cccc3F)n(Cc3c(F)cccc3F)c2cc1C	25.2	24.4		34.3	38.4	35.1	34	40.6	37.7	42.8	28.6	27.4
N#Cc1[nH]c(=O)n(-c2cccc3ccccc23)c1N	> 10	> 10	> 10	> 10	> 10		> 10	> 10	> 10	> 10	> 10	> 10
C/C(=N\NC(=S)Nc1ccc(C)cc1)c1nc2ncccc2[nH]1		14.3	15	5.71	23.8	8.01	14.5	32.5	> 100	24.2	32	8.29
